Here are results for eleven compounds from ChEMBL document CHEMBL5291721, “A preclinical secondary pharmacology resource illuminates target-adverse drug reaction associations of marketed drugs” (Nat Commun, 2023).

Bounds are passed on as bounds.

For test [1], the target named is Voltage-dependent L-type calcium channel subunit alpha-1C (Rattus norvegicus, UniProt P22002). Type of test: functional.
The target in test [2] is T1, Muscarinic acetylcholine receptor M2 (Homo sapiens, UniProt P08172).
T1 sequence (P08172 whole entry): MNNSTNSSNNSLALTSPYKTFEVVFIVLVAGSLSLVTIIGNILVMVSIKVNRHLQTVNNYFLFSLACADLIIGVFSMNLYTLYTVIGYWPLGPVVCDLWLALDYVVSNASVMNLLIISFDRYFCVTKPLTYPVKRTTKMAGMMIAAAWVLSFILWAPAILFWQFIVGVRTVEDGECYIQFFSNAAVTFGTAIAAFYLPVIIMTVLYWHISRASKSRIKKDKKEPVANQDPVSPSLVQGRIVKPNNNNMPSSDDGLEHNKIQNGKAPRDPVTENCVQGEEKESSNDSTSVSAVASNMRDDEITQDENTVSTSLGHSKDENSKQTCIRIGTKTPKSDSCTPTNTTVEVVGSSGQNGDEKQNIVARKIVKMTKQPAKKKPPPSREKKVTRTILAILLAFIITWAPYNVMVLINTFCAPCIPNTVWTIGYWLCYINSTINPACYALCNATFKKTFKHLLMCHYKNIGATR
In kind it is functional, cell-based.

Test [3] addresses T1, Muscarinic acetylcholine receptor M2. Type of test: functional, cell-based. The source holds these as a separate data set.
For another test, the target named is D(1A) dopamine receptor (Homo sapiens, UniProt P21728). Type of test: functional, cell-based.
D(1A) dopamine receptor, sequence (P21728 whole entry): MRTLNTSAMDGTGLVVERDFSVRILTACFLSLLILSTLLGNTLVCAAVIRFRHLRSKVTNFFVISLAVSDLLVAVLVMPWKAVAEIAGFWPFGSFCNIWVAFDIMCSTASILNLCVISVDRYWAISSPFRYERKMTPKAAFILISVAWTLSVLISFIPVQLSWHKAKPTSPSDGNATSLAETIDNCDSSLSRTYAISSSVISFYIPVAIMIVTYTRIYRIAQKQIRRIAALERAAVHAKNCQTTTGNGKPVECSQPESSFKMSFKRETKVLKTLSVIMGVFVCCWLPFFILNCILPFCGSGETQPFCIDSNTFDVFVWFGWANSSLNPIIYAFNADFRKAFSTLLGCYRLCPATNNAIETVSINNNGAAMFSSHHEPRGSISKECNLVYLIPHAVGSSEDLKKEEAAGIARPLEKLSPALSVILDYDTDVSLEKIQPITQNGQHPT
Test [4] concerns the target Gamma-aminobutyric acid receptor subunit alpha-1 (Rattus norvegicus, UniProt P62813).
The target of test [5] is Growth hormone secretagogue receptor type 1 (Homo sapiens, UniProt Q92847).
Growth hormone secretagogue receptor type 1, sequence (Q92847 whole entry): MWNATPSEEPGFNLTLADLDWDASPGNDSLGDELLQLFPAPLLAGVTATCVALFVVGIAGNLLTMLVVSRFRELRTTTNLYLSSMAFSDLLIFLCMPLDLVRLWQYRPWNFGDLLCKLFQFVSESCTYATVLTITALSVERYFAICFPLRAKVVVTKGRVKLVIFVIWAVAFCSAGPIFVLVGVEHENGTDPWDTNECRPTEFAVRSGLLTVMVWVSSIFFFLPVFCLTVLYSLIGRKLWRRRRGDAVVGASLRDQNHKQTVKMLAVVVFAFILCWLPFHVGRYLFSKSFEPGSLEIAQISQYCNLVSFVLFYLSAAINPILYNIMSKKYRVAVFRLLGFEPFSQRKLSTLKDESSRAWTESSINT
For test [6], the target named is T2, 5-hydroxytryptamine receptor 1A (Homo sapiens, UniProt P08908).
T2 sequence (P08908 whole entry): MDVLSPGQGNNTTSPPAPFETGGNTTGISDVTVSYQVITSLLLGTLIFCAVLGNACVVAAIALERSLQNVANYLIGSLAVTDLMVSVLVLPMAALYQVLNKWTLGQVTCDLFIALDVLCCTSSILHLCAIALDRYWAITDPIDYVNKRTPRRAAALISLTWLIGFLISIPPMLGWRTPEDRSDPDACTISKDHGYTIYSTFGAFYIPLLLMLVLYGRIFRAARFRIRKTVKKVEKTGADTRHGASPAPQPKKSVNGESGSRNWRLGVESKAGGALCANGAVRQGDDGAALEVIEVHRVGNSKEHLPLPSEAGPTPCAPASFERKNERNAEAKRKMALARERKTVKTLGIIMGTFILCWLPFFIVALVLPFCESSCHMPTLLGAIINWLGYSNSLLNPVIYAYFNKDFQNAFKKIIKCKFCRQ
In kind it is functional, cell-based.

Test [7] deals with Delta-type opioid receptor (Homo sapiens, UniProt P41143).
Delta-type opioid receptor, sequence (P41143 whole entry): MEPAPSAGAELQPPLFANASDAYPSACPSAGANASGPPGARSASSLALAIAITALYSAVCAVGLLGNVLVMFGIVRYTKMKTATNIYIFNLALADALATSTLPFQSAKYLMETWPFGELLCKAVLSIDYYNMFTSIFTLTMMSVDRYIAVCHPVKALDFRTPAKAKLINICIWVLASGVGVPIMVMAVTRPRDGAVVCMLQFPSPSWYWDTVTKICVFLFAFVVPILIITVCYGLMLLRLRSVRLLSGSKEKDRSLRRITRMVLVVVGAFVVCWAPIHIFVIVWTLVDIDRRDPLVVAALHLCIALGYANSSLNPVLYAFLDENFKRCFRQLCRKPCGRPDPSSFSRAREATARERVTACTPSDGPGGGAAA
The next test addresses T3, Progesterone receptor (Homo sapiens, UniProt P06401).
T3 sequence (P06401 whole entry): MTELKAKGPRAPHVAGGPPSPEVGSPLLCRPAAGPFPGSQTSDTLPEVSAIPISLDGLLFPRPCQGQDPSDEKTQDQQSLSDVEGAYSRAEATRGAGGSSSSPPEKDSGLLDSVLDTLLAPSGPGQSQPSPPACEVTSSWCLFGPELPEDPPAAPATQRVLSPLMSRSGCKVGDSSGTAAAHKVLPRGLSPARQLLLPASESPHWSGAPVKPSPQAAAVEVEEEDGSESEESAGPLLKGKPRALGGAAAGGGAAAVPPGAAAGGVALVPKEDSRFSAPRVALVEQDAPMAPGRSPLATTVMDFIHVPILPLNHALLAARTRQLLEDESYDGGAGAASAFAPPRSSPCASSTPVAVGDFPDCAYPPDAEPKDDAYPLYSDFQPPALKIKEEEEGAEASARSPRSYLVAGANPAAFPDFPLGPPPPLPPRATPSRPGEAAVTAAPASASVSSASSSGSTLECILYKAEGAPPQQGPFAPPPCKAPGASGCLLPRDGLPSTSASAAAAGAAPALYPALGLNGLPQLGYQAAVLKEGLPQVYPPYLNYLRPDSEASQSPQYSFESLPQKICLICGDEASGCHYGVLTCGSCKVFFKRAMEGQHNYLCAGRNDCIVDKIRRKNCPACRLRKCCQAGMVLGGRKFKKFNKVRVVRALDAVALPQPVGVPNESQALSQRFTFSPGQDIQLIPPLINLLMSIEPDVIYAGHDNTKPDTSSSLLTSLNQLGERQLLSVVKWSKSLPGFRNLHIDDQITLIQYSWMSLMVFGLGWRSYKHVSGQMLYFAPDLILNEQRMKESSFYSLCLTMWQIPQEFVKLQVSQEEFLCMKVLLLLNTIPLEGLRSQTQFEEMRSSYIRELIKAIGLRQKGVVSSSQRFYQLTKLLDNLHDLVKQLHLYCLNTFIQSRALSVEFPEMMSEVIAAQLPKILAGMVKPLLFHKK
Type of test: functional.

Test [8] deals with Sodium-dependent dopamine transporter (Homo sapiens, UniProt Q01959).
Sodium-dependent dopamine transporter, sequence (Q01959 whole entry): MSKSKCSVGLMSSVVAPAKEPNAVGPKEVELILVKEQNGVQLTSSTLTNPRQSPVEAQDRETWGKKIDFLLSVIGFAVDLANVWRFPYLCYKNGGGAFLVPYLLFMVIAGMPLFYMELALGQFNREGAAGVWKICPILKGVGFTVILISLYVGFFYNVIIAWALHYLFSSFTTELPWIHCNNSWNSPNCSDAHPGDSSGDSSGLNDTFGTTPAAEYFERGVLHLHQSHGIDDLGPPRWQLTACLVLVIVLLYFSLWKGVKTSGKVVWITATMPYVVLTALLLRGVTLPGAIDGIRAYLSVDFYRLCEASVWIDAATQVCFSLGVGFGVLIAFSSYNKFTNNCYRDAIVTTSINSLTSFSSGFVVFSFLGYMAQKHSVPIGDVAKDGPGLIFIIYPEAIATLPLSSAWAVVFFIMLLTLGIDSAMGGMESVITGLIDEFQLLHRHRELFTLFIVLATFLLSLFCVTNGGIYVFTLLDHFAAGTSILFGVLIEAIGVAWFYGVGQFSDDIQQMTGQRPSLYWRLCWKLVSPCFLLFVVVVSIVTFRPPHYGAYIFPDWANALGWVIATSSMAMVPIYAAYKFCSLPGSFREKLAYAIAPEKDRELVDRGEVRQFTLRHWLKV
In a further test the target is Mu-type opioid receptor (Homo sapiens, UniProt P35372).
Mu-type opioid receptor, sequence (P35372 whole entry): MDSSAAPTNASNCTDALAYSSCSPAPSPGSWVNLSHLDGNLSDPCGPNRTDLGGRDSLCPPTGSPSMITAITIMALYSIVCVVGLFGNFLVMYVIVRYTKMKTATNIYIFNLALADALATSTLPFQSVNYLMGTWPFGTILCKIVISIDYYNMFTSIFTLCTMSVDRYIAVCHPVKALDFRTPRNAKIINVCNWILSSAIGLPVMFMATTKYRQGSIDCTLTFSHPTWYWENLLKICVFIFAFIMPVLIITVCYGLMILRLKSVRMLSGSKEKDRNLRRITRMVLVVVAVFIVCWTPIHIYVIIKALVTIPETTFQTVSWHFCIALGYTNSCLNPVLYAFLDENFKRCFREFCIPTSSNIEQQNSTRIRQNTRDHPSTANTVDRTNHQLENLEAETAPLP
Another test has as its target Cannabinoid receptor 1 (Homo sapiens, UniProt P21554). In kind it is functional, cell-based.
For another test, the target named is Histamine H3 receptor (Homo sapiens, UniProt Q9Y5N1).
Histamine H3 receptor, sequence (Q9Y5N1 whole entry): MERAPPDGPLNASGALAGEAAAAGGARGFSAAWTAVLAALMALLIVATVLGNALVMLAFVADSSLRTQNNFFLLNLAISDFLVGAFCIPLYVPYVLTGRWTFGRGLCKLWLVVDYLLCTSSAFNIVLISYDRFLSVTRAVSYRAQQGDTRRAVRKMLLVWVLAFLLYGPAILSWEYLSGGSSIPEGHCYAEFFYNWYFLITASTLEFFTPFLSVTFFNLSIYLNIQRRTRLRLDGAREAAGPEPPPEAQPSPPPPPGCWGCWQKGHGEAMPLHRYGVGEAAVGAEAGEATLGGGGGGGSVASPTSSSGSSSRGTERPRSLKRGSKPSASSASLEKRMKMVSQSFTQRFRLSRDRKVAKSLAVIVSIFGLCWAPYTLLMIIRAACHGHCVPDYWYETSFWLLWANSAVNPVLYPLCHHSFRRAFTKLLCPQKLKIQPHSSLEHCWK
The target in test [9] is T4, Alpha-1A adrenergic receptor (Homo sapiens, UniProt P35348).
T4 sequence (P35348 whole entry): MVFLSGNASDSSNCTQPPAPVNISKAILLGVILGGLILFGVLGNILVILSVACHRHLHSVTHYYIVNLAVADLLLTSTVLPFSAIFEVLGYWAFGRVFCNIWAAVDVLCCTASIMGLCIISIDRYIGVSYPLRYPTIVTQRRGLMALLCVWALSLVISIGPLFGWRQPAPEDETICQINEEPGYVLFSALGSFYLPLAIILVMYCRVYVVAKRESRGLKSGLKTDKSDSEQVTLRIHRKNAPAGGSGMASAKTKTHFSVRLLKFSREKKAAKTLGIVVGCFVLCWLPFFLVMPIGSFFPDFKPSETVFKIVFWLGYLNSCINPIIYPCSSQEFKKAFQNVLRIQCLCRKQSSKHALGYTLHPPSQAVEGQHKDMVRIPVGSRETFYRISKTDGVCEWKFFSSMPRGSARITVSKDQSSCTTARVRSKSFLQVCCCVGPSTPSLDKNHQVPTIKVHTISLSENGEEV
In kind it is functional, cell-based.
Further: assay procedure not described here.

Gamma-aminobutyric acid receptor subunit alpha-1, sequence (P62813 whole entry): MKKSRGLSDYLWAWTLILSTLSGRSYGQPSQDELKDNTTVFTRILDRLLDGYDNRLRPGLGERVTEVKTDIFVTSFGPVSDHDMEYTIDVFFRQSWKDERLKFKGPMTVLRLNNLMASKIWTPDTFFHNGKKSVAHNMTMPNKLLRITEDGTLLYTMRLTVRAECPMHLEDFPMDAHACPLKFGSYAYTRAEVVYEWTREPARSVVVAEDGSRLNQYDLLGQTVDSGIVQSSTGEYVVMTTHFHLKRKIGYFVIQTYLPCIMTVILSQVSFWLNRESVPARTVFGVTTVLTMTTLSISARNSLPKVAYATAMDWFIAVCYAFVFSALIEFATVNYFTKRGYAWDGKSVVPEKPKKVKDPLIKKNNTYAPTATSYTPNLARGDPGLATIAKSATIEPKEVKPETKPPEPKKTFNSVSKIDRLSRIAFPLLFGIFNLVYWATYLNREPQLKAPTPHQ
Cannabinoid receptor 1, sequence (P21554 whole entry): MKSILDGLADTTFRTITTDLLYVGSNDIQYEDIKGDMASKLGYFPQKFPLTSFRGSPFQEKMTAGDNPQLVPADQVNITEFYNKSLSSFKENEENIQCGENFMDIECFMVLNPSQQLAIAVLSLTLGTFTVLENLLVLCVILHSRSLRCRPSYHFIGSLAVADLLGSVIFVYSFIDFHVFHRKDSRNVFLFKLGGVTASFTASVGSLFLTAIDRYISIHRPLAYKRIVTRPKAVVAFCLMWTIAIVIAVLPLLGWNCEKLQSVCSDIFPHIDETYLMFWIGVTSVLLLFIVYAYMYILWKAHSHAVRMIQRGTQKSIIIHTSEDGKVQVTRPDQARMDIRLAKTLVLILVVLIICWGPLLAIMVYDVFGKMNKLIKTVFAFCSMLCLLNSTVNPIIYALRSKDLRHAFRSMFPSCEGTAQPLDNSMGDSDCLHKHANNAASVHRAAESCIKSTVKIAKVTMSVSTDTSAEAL

`CC(N)C12CC3CC(CC(C3)C1)C2` (stereo unspecified) [RIMANTADINE]: the AC50 (in test [1]; in test [2]; in test [3]; at D(1A) dopamine receptor; in [4]; in [5]) was greater than 10 µM each time. Further, the concentration at half-maximal activity (AC50) in test [6] is greater than 10 µM; in test [7], greater than 30 µM; on Progesterone receptor it was greater than 10 µM; in test [8], greater than 10 µM; on Mu-type opioid receptor it was greater than 30 µM.

For `CCN(CC)CCNC(=O)c1c(C)[nH]c(/C=C2\C(=O)Nc3ccc(F)cc32)c1C` [SUNITINIB], the AC50 was greater than 30 µM in test [1]; greater than 30 µM in test [2]; greater than 10 µM in test [3]; greater than 30 µM on Cannabinoid receptor 1; greater than 30 µM in test [4]; 7.2 µM in [5]. The concentration at half-maximal activity (AC50) in [7] is 1.7 µM; on Mu-type opioid receptor, 4.9 µM; at Histamine H3 receptor it was 0.88 µM.

`O=C1CN(/N=C/c2ccc(-c3ccc([N+](=O)[O-])cc3)o2)C(O)=N1` [DANTROLENE]: the AC50 (in test [1]; in test [2]; in test [3]; at D(1A) dopamine receptor; in test [4]; in test [5]) was greater than 10 µM throughout. The half-maximal activity concentration (AC50) in test [6] is greater than 10 µM; in [7] it was greater than 30 µM; on Progesterone receptor, greater than 10 µM; in test [8], greater than 10 µM; at Mu-type opioid receptor, greater than 30 µM.

On to `CN(C)CC[C@@H](c1ccc(Cl)cc1)c1ccccn1` [DEXCHLORPHENIRAMINE], for which the AC50 in test [1] was greater than 30 µM; in test [2] it was greater than 30 µM; in test [3], 26 µM; at Cannabinoid receptor 1, greater than 30 µM; at D(1A) dopamine receptor it was greater than 30 µM; in [4], greater than 30 µM. Further, the half-maximal activity concentration (AC50) was greater than 30 µM in test [5]; 22 µM in test [6]; greater than 30 µM in test [7]; greater than 30 µM on Progesterone receptor; 6.3 µM at Histamine H3 receptor.

For the compound `COc1ccccc1OCCNCC(O)COc1cccc2[nH]c3ccccc3c12` (stereo unspecified) [CARVEDILOL], the AC50 in [1] is greater than 10 µM; in test [2] it was greater than 10 µM; in test [3], greater than 10 µM; on Cannabinoid receptor 1 it was greater than 30 µM; at D(1A) dopamine receptor, greater than 10 µM; in test [4], greater than 10 µM. Further, the concentration at half-maximal activity (AC50) in test [5] is 14.1 µM; in test [7], greater than 10 µM; at Progesterone receptor, greater than 30 µM; in [8] it was 4.53 µM; on Mu-type opioid receptor, 1.7 µM; at Histamine H3 receptor, greater than 30 µM.

Consider `CCCN(CCC)C(=O)Cc1c(-c2ccc(Cl)cc2)nc2ccc(Cl)cn12` [ALPIDEM], for which the concentration at half-maximal activity (AC50) (in test [9]; in [1]; in [2]; in test [3]; at D(1A) dopamine receptor; in test [4]) was greater than 30 µM each time. For the same compound, the AC50 in test [5] is greater than 30 µM; in test [7] it was greater than 30 µM; on Progesterone receptor it was greater than 30 µM; in [8] it was greater than 30 µM; on Mu-type opioid receptor, greater than 10 µM; at Histamine H3 receptor it was greater than 30 µM.

`CCCC(CCC)C(=O)O` [VALPROIC ACID]: the half-maximal activity concentration (AC50) was greater than 10 µM in test [1]; greater than 10 µM in [2]; greater than 10 µM in [3]; greater than 10 µM on D(1A) dopamine receptor; greater than 10 µM in test [4]; greater than 30 µM in test [5]. Further, the half-maximal activity concentration (AC50) in test [6] was greater than 10 µM; in test [7], greater than 30 µM; in test [8] it was 4.97 µM; on Mu-type opioid receptor, greater than 30 µM; on Histamine H3 receptor it was greater than 10 µM.

For `COc1cc2nc(N3CCN(C(=O)C4CCCO4)CC3)nc(N)c2cc1OC` (stereo unspecified) [TERAZOSIN], the concentration at half-maximal activity (AC50) in test [2] is greater than 10 µM; in test [3], greater than 10 µM; on Cannabinoid receptor 1 it was greater than 30 µM; at D(1A) dopamine receptor, greater than 10 µM; in [4] it was greater than 10 µM; in test [5], greater than 30 µM. In addition, the AC50 in [6] is greater than 10 µM; in test [7], greater than 30 µM; in [8], greater than 10 µM; at Mu-type opioid receptor, 3 µM; on Histamine H3 receptor, greater than 10 µM.

Consider `CO[C@H]1/C=C/O[C@@]2(C)Oc3c(C)c(O)c4c(O)c(c(/C=N/N5CCN(C)CC5)c(O)c4c3C2=O)NC(=O)/C(C)=C\C=C\[C@H](C)[C@H](O)[C@@H](C)[C@@H](O)[C@@H](C)[C@H](OC(C)=O)[C@@H]1C` [RIFAMPIN], for which the AC50 in test [1] is greater than 30 µM; in test [2], greater than 30 µM; in test [3] it was greater than 10 µM; at Cannabinoid receptor 1 it was greater than 30 µM; on D(1A) dopamine receptor, greater than 30 µM; in test [4], greater than 30 µM. Moreover, the concentration at half-maximal activity (AC50) was greater than 30 µM in [5]; greater than 10 µM in [6]; 17 µM in [7]; 20 µM in test [8]; 8 µM on Mu-type opioid receptor; 25 µM at Histamine H3 receptor.

As for `CN1C(C(=O)Nc2ccccn2)=C(O)c2ccccc2S1(=O)=O` [PIROXICAM], the AC50 (in test [1]; in [2]; in [3]; on D(1A) dopamine receptor; in test [4]; in [5]) was greater than 10 µM in each case. Besides, the half-maximal activity concentration (AC50) in [6] was greater than 10 µM; in test [7], greater than 30 µM; at Progesterone receptor, greater than 10 µM; in test [8], greater than 10 µM; at Mu-type opioid receptor, greater than 30 µM.

Take `CN1C[C@H](C(=O)N[C@]2(C)O[C@@]3(O)[C@@H]4CCCN4C(=O)[C@H](Cc4ccccc4)N3C2=O)C=C2c3cccc4[nH]cc(c34)C[C@H]21` [ERGOTAMINE]: the AC50 is greater than 30 µM in [2]; greater than 30 µM in test [3]; greater than 30 µM at Cannabinoid receptor 1; 0.59 µM on D(1A) dopamine receptor; greater than 30 µM in test [5]; greater than 30 µM in test [7]. For the same compound, the concentration at half-maximal activity (AC50) (on Progesterone receptor; in test [8]; at Mu-type opioid receptor; on Histamine H3 receptor) was greater than 30 µM in each case.
